Experimental data reported in ChEMBL document CHEMBL4507294, “Data for DCP probe MSD-CYP11B2” (2021).

How the values were obtained:
[1] = molecular target: RAC-beta serine/threonine-protein kinase (Homo sapiens) (UniProt P31751); settings: Compound concentration 1000.0 nM
[2] = molecular target: Serine/threonine-protein kinase BRSK2 (Homo sapiens) (UniProt Q8IWQ3); settings: Compound concentration 1000.0 nM
[3] = molecular target: Cyclin-dependent kinase 2 (Homo sapiens) (UniProt P24941); settings: Compound concentration 1000.0 nM
[4] = molecular target: Cyclin-dependent kinase 9 (Homo sapiens) (UniProt P50750); settings: Compound concentration 1000.0 nM
[5] = molecular target: Cyclin-dependent kinase-like 2 (Homo sapiens) (UniProt Q92772); settings: Compound concentration 1000.0 nM
[6] = system: Epidermal growth factor receptor (Homo sapiens), P00533 [UNDEFINED MUTATION]; settings: Compound concentration 1000.0 nM
[7] = system: Epidermal growth factor receptor (Homo sapiens), P00533 [L858R]; settings: Compound concentration 1000.0 nM
[8] = molecular target: Tyrosine-protein kinase FRK (Homo sapiens) (UniProt P42685); settings: Compound concentration 1000.0 nM
[9] = molecular target: Homeodomain-interacting protein kinase 2 (Homo sapiens) (UniProt Q9H2X6); settings: Compound concentration 1000.0 nM
[10] = molecular target: Tyrosine-protein kinase ITK/TSK (Homo sapiens) (UniProt Q08881); settings: Compound concentration 1000.0 nM
[11] = molecular target: Tyrosine-protein kinase Lyn (Homo sapiens) (UniProt P07948); settings: Compound concentration 1000.0 nM
[12] = molecular target: Mitogen-activated protein kinase kinase kinase kinase 2 (Homo sapiens) (UniProt Q12851); settings: Compound concentration 1000.0 nM
[13] = molecular target: Serine/threonine-protein kinase MARK2 (Homo sapiens) (UniProt Q7KZI7); settings: Compound concentration 1000.0 nM
[14] = molecular target: Dual specificity mitogen-activated protein kinase kinase 1 (Homo sapiens) (UniProt Q02750); settings: Compound concentration 1000.0 nM
[15] = molecular target: MAP kinase-interacting serine/threonine-protein kinase 2 (Homo sapiens) (UniProt Q9HBH9); settings: Compound concentration 1000.0 nM
[16] = molecular target: Cyclin-dependent kinase 17 (Homo sapiens) (UniProt Q00537); settings: Compound concentration 1000.0 nM
[17] = system: Phosphatidylinositol 4,5-bisphosphate 3-kinase catalytic subunit alpha isoform (Homo sapiens), P42336 [H1047L]; settings: Compound concentration 1000.0 nM
[18] = system: Phosphatidylinositol 4,5-bisphosphate 3-kinase catalytic subunit alpha isoform (Homo sapiens), P42336 [I800L]; settings: Compound concentration 1000.0 nM
[19] = molecular target: Serine/threonine-protein kinase pim-2 (Homo sapiens) (UniProt Q9P1W9); settings: Compound concentration 1000.0 nM
[20] = molecular target: cAMP-dependent protein kinase catalytic subunit alpha (Homo sapiens) (UniProt P17612); settings: Compound concentration 1000.0 nM
[21] = molecular target: cAMP-dependent protein kinase catalytic subunit beta (Homo sapiens) (UniProt P22694); settings: Compound concentration 1000.0 nM
[22] = molecular target: Membrane-associated tyrosine- and threonine-specific cdc2-inhibitory kinase (Homo sapiens) (UniProt Q99640); settings: Compound concentration 1000.0 nM
[23] = molecular target: Serine/threonine-protein kinase N1 (Homo sapiens) (UniProt Q16512); settings: Compound concentration 1000.0 nM
[24] = molecular target: Protein kinase C epsilon type (Homo sapiens) (UniProt Q02156); settings: Compound concentration 1000.0 nM
[25] = molecular target: Serine/threonine-protein kinase D3 (Homo sapiens) (UniProt O94806); settings: Compound concentration 1000.0 nM
[26] = molecular target: cGMP-dependent protein kinase 1 (Homo sapiens) (UniProt Q13976); settings: Compound concentration 1000.0 nM
[27] = molecular target: Serine/threonine-protein kinase RIO1 (Homo sapiens) (UniProt Q9BRS2); settings: Compound concentration 1000.0 nM
[28] = molecular target: Proto-oncogene tyrosine-protein kinase ROS (Homo sapiens) (UniProt P08922); settings: Compound concentration 1000.0 nM
[29] = molecular target: Ribosomal protein S6 kinase alpha-3 (Homo sapiens) (UniProt P51812); settings: Compound concentration 1000.0 nM
[30] = molecular target: SRSF protein kinase 1 (Homo sapiens) (UniProt Q96SB4); settings: Compound concentration 1000.0 nM
[31] = molecular target: Tyrosine-protein kinase Tec (Homo sapiens) (UniProt P42680); settings: Compound concentration 1000.0 nM
[32] = molecular target: High affinity nerve growth factor receptor (Homo sapiens) (UniProt P04629); settings: Compound concentration 1000.0 nM
[33] = molecular target: Tyrosine-protein kinase Yes (Homo sapiens) (UniProt P07947); settings: Compound concentration 1000.0 nM
[34] = molecular target: 5-hydroxytryptamine receptor 6 (Homo sapiens, UniProt P50406); settings: Compound concentration 10.0 uM
[35] = molecular target: Kappa-type opioid receptor (Homo sapiens) (UniProt P41145); settings: Compound concentration 10.0 uM
[36] = molecular target: T1, Alpha-2B adrenergic receptor (Homo sapiens) (UniProt P18089); settings: Compound concentration 10.0 uM
T1 sequence (whole entry): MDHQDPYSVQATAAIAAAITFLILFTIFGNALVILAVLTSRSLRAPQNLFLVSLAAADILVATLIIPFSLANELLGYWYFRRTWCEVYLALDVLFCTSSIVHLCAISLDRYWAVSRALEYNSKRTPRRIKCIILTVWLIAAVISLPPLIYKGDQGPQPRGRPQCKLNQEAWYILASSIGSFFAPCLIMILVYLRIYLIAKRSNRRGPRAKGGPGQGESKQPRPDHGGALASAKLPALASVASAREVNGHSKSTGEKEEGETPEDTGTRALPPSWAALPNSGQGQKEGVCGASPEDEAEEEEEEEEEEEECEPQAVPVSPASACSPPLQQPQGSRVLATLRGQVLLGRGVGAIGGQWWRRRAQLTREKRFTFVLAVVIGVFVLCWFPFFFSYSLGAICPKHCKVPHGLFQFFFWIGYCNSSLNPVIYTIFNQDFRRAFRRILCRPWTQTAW

[37] = molecular target: GABA-A receptor; anion channel (Rattus norvegicus) (UniProt O09028+P15431+P18506+P18508+P19969+P20236+P23574+P23576+P28471+P28473+P30191+P62813+P63079+P63138+Q91ZM7+Q9ES14); settings: Compound concentration 10.0 uM

Sequence of cGMP-dependent protein kinase 1 (Homo sapiens) (Q13976 whole entry): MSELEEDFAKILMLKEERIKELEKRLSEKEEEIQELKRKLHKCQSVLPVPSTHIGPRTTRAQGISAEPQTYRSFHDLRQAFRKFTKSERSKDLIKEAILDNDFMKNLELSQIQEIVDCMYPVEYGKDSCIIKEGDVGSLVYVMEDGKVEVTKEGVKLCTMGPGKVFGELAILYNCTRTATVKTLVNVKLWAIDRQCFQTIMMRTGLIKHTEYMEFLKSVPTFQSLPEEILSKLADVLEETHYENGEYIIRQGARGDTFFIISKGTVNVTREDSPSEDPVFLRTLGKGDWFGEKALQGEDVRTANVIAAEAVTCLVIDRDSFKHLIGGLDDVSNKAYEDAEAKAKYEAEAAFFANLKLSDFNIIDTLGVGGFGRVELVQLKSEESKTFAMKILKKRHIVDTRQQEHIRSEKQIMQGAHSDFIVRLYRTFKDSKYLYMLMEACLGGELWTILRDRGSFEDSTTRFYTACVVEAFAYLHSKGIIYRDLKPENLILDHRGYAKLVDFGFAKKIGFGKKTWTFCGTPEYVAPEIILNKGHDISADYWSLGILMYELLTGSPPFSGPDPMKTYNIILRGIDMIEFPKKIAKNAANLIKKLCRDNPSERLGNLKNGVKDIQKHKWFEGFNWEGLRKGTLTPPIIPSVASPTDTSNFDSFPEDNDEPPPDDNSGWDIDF
Sequence of Tyrosine-protein kinase Lyn (Homo sapiens) (P07948 2-512 limits assumed): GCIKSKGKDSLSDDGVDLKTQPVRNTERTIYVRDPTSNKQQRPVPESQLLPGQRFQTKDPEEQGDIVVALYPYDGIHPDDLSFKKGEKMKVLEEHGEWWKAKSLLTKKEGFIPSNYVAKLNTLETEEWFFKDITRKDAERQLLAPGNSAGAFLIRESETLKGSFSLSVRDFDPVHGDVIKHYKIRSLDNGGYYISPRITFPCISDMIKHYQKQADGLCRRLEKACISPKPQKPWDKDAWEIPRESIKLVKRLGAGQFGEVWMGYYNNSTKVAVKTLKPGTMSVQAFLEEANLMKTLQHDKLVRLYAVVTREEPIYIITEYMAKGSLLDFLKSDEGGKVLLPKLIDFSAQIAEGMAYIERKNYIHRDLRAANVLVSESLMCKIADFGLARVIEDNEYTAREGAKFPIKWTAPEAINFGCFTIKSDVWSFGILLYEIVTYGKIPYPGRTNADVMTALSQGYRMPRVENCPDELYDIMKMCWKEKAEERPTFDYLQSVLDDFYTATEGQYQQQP
Sequence of Mitogen-activated protein kinase kinase kinase kinase 2 (Homo sapiens) (Q12851 whole entry): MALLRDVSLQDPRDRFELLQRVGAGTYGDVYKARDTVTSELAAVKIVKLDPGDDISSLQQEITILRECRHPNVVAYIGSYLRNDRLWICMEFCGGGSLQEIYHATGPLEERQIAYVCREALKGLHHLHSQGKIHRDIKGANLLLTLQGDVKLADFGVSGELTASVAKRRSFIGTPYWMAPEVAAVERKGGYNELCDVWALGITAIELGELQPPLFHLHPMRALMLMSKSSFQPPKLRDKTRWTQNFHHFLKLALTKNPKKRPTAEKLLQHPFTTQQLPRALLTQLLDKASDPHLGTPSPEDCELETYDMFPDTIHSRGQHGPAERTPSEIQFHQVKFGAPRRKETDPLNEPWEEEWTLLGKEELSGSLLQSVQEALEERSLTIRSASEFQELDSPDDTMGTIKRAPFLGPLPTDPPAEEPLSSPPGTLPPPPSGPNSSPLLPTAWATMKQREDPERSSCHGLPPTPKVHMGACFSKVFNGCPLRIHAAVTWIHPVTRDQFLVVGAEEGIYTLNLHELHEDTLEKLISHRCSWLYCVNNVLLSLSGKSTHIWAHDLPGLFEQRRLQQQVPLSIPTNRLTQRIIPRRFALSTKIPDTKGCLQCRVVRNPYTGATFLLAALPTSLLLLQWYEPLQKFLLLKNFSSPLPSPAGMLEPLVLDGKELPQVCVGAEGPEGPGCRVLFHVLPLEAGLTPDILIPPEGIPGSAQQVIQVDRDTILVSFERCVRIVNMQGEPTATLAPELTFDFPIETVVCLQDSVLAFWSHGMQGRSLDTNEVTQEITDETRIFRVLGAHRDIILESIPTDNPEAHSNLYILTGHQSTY
Sequence of Cyclin-dependent kinase 17 (Homo sapiens) (Q00537 whole entry, looked up, canonical isoform): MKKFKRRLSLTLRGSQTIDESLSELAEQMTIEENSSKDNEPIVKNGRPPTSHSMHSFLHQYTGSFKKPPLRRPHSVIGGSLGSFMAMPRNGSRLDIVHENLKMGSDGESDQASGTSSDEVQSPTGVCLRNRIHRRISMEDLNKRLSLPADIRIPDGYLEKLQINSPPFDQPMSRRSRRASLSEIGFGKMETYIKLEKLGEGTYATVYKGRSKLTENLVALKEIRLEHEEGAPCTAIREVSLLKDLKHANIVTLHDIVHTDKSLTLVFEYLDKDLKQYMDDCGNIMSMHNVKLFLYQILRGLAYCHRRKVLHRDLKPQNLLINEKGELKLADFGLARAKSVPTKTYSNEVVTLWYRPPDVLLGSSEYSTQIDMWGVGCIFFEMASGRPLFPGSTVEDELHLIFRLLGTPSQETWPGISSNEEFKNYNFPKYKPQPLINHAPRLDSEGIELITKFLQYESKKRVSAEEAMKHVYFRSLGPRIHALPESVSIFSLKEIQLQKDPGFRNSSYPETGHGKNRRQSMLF
Sequence of Serine/threonine-protein kinase RIO1 (Homo sapiens) (Q9BRS2 whole entry): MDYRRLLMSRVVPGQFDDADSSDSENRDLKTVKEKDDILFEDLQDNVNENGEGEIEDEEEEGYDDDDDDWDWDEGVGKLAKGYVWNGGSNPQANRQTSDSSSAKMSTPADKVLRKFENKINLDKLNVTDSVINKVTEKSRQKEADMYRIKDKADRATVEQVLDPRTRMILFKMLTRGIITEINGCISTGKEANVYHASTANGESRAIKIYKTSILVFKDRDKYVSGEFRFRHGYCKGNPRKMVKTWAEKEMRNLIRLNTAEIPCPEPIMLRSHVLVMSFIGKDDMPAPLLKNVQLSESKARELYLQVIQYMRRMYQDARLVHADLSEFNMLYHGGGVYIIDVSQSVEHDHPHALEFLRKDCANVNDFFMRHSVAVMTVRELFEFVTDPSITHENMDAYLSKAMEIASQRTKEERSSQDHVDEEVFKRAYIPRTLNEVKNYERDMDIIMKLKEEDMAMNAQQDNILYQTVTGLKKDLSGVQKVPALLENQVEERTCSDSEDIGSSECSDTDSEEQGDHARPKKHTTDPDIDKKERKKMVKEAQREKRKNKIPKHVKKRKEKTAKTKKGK
Sequence of Phosphatidylinositol 4,5-bisphosphate 3-kinase catalytic subunit alpha isoform (Homo sapiens), P42336 [I800L] (P42336 whole entry I800L, canonical isoform): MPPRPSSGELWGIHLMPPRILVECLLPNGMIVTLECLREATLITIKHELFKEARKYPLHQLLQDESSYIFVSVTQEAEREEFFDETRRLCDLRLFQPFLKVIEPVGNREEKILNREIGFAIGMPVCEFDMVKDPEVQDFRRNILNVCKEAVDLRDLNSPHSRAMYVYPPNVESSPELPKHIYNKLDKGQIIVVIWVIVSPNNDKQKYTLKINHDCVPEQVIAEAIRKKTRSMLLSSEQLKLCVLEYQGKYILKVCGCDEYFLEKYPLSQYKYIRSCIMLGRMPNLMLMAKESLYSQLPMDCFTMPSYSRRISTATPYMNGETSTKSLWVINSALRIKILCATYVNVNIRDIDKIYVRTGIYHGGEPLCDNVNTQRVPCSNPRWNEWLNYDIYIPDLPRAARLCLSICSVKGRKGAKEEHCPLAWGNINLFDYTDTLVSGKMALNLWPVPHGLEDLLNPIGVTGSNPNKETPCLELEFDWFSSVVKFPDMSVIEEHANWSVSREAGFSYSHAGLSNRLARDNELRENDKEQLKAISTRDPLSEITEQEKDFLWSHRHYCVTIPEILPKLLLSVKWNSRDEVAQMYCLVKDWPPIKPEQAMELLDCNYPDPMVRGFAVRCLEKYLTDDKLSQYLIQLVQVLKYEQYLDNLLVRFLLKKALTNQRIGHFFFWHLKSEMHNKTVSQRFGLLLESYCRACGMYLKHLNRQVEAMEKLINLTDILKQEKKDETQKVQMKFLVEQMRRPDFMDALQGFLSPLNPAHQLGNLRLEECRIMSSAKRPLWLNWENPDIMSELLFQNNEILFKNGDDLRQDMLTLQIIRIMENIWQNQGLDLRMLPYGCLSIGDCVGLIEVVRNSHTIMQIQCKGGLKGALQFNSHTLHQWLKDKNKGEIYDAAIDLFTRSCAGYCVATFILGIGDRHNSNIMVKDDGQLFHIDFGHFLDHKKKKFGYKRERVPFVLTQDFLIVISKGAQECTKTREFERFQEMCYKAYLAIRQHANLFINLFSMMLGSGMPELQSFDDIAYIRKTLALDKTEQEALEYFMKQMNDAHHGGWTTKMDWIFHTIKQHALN
Sequence of 5-hydroxytryptamine receptor 6 (P50406 whole entry): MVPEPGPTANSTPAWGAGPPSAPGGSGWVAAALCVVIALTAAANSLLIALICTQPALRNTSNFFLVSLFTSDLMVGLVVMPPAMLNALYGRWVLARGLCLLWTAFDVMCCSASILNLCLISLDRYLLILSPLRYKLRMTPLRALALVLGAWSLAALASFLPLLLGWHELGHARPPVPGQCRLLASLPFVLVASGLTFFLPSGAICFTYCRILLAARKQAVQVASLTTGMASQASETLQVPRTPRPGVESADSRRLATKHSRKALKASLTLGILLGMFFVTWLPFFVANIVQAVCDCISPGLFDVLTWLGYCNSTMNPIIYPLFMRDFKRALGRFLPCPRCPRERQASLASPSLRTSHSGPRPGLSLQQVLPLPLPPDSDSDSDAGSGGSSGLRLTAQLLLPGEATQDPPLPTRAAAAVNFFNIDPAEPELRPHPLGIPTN
Sequence of Serine/threonine-protein kinase pim-2 (Homo sapiens) (Q9P1W9 whole entry, looked up): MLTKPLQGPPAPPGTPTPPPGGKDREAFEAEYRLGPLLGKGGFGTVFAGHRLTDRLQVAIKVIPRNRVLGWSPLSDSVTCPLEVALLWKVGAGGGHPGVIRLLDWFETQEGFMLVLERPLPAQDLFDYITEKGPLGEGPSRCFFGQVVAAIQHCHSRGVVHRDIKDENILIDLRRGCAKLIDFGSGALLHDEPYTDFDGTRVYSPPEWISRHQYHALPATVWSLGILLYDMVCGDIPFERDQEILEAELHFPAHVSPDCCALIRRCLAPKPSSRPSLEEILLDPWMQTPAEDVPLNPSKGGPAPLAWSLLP

Compound	residual activity [1] [%]	residual activity [2] [%]	residual activity [3] [%]	residual activity [4] [%]	residual activity [5] [%]	residual activity [6] [%]	residual activity [7] [%]	residual activity [8] [%]	residual activity [9] [%]	residual activity [10] [%]	residual activity [11] [%]	residual activity [12] [%]	residual activity [13] [%]	residual activity [14] [%]	residual activity [15] [%]	residual activity [16] [%]	residual activity [17] [%]	residual activity [18] [%]	residual activity [19] [%]	residual activity [20] [%]	further results
CC(C)(O)c1cncc(-c2nc3ccc(F)cc3n2C2CC2)c1 [MSD-CYP11B2]	84	100	100	100	97	100	100	100	100	100	100	98	100	100	100	100	97	90	100	100	residual activity [21]: 77%; residual activity [22]: 100%; residual activity [23]: 100%; residual activity [24]: 100%; residual activity [25]: 100%; residual activity [26]: 78%; residual activity [27]: 100%; residual activity [28]: 100%; residual activity [29]: 100%; residual activity [30]: 100%; residual activity [31]: 100%; residual activity [32]: 100%; residual activity [33]: 100%; inhibition [34]: 15.6%; inhibition [35]: -8.65%; inhibition [36]: 76.4%; inhibition [37]: 16.6%
FC(F)(F)c1ccc2c(c1)nc(-c1cccnc1)n2C1CC1 [MSD-CYP11B2-Negative-control]	100	90	100	100	100	87	91	100	100	100	82	73	100	94	100	100	100	99	100	100	residual activity [21]: 100%; residual activity [22]: 100%; residual activity [23]: 100%; residual activity [24]: 97%; residual activity [25]: 100%; residual activity [26]: 87%; residual activity [27]: 100%; residual activity [28]: 100%; residual activity [29]: 89%; residual activity [30]: 80%; residual activity [31]: 100%; residual activity [32]: 100%; residual activity [33]: 100%; inhibition [34]: 60.4%; inhibition [35]: -1.84%; inhibition [36]: 43.3%; inhibition [37]: 2.02%
